Assay results published in US7384629B2, “Biological control of nematodes with Hirsutella minnesotensis” (Regents of the University of Minnesota, priority 2000, dated 2008).

Test system: Hirsutella rhossiliensis
Experiment: Effect of carbon source on growth, sporulation and spore germination
Conditions: carbon source 4 g/liter carbon; isolate ATCC46487; 5 weeks

Compound | Growth mm-in-diam, on agar
OC[C@H]1O[C@@](CO)(O[C@H]2O[C@H](CO)[C@@H](O)[C@H](O)[C@H]2O)[C@@H](O)[C@@H]1O [Sucrose] | 39.5 mm-in-diam
OC[C@H]1O[C@H](O[C@H]2[C@H](O)[C@@H](O)[C@H](O)O[C@@H]2CO)[C@H](O)[C@@H](O)[C@@H]1O [Maltose monohydrate] | 34.3 mm-in-diam
OC[C@@H](O)[C@@H](O)[C@H](O)[C@H](O)CO [D-mannitol] | 29.5 mm-in-diam
O=C[C@H](O)[C@@H](O)[C@@H](O)[C@H](O)CO [D(+)galactose] | 25.0 mm-in-diam
OC[C@@H](O)[C@@H](O)[C@H](O)[C@@H](O)CO [D-sorbitol] | 30.3 mm-in-diam
O=C(CO)[C@@H](O)[C@H](O)[C@@H](O)CO [L-(−)-sorbose] | 7.8 mm-in-diam

Same assay, conditions: carbon source 4 g/liter carbon; isolate JA16-1; 5 weeks

Compound | Growth mm-in-diam, on agar
OC[C@H]1O[C@@](CO)(O[C@H]2O[C@H](CO)[C@@H](O)[C@H](O)[C@H]2O)[C@@H](O)[C@@H]1O [Sucrose] | 15.0 mm-in-diam
OC[C@H]1O[C@H](O[C@H]2[C@H](O)[C@@H](O)[C@H](O)O[C@@H]2CO)[C@H](O)[C@@H](O)[C@@H]1O [Maltose monohydrate] | 11.0 mm-in-diam
OC[C@@H](O)[C@@H](O)[C@H](O)[C@H](O)CO [D-mannitol] | 18.0 mm-in-diam
O=C[C@H](O)[C@@H](O)[C@@H](O)[C@H](O)CO [D(+)galactose] | 0.0 mm-in-diam
OC[C@@H](O)[C@@H](O)[C@H](O)[C@@H](O)CO [D-sorbitol] | 18.3 mm-in-diam
O=C(CO)[C@@H](O)[C@H](O)[C@@H](O)CO [L-(−)-sorbose] | 0.0 mm-in-diam

Same assay, conditions: carbon source 4 g/liter carbon; isolate OWVT-1; 5 weeks

Compound | Growth mm-in-diam, on agar
OC[C@H]1O[C@@](CO)(O[C@H]2O[C@H](CO)[C@@H](O)[C@H](O)[C@H]2O)[C@@H](O)[C@@H]1O [Sucrose] | 21.8 mm-in-diam
OC[C@H]1O[C@H](O[C@H]2[C@H](O)[C@@H](O)[C@H](O)O[C@@H]2CO)[C@H](O)[C@@H](O)[C@@H]1O [Maltose monohydrate] | 13.7 mm-in-diam
OC[C@@H](O)[C@@H](O)[C@H](O)[C@H](O)CO [D-mannitol] | 23.2 mm-in-diam
O=C[C@H](O)[C@@H](O)[C@@H](O)[C@H](O)CO [D(+)galactose] | 7.0 mm-in-diam
OC[C@@H](O)[C@@H](O)[C@H](O)[C@@H](O)CO [D-sorbitol] | 11.7 mm-in-diam
O=C(CO)[C@@H](O)[C@H](O)[C@@H](O)CO [L-(−)-sorbose] | 6.7 mm-in-diam

Same assay, conditions: carbon source; isolate ATCC46487; 5 weeks

Compound | Sporulation 10^3/cm^2, on agar | growth in liquid culture (visual rating)
OC[C@H]1O[C@@](CO)(O[C@H]2O[C@H](CO)[C@@H](O)[C@H](O)[C@H]2O)[C@@H](O)[C@@H]1O [Sucrose] | 38.9 10^3/cm^2 | III (III = hyphae growth or colonies form a pellet, less than 2.5 ml)
OC[C@H]1O[C@H](O[C@H]2[C@H](O)[C@@H](O)[C@H](O)O[C@@H]2CO)[C@H](O)[C@@H](O)[C@@H]1O [Maltose monohydrate] | 21.9 10^3/cm^2 | I
OC[C@@H](O)[C@@H](O)[C@H](O)[C@H](O)CO [D-mannitol] | 15.9 10^3/cm^2 | III (III = hyphae growth or colonies form a pellet, less than 2.5 ml)
O=C[C@H](O)[C@@H](O)[C@@H](O)[C@H](O)CO [D(+)galactose] | 2.8 10^3/cm^2 | I
OC[C@@H](O)[C@@H](O)[C@H](O)[C@@H](O)CO [D-sorbitol] | 64.7 10^3/cm^2 | III (III = hyphae growth or colonies form a pellet, less than 2.5 ml)
O=C(CO)[C@@H](O)[C@H](O)[C@@H](O)CO [L-(−)-sorbose] | 62.5 10^3/cm^2 | I

Same assay, conditions: carbon source; isolate ATCC46487; after incubation for 24 hr

Compound | Spore germination %, on agar
OC[C@H]1O[C@@](CO)(O[C@H]2O[C@H](CO)[C@@H](O)[C@H](O)[C@H]2O)[C@@H](O)[C@@H]1O [Sucrose] | 55.6%
OC[C@H]1O[C@H](O[C@H]2[C@H](O)[C@@H](O)[C@H](O)O[C@@H]2CO)[C@H](O)[C@@H](O)[C@@H]1O [Maltose monohydrate] | 36.7%
OC[C@@H](O)[C@@H](O)[C@H](O)[C@H](O)CO [D-mannitol] | 58.9%
O=C[C@H](O)[C@@H](O)[C@@H](O)[C@H](O)CO [D(+)galactose] | 62.2%
OC[C@@H](O)[C@@H](O)[C@H](O)[C@@H](O)CO [D-sorbitol] | 57.8%
O=C(CO)[C@@H](O)[C@H](O)[C@@H](O)CO [L-(−)-sorbose] | 35.6%

Same assay, conditions: carbon source; isolate JA16-1; 5 weeks

Compound | Sporulation 10^3/cm^2, on agar | growth in liquid culture (visual rating)
OC[C@H]1O[C@@](CO)(O[C@H]2O[C@H](CO)[C@@H](O)[C@H](O)[C@H]2O)[C@@H](O)[C@@H]1O [Sucrose] | 6.9 10^3/cm^2 | I
OC[C@H]1O[C@H](O[C@H]2[C@H](O)[C@@H](O)[C@H](O)O[C@@H]2CO)[C@H](O)[C@@H](O)[C@@H]1O [Maltose monohydrate] | 26.6 10^3/cm^2 | I
OC[C@@H](O)[C@@H](O)[C@H](O)[C@H](O)CO [D-mannitol] | 17.3 10^3/cm^2 | I
O=C[C@H](O)[C@@H](O)[C@@H](O)[C@H](O)CO [D(+)galactose] | 7.4 10^3/cm^2 | 
OC[C@@H](O)[C@@H](O)[C@H](O)[C@@H](O)CO [D-sorbitol] | 4.2 10^3/cm^2 | I
O=C(CO)[C@@H](O)[C@H](O)[C@@H](O)CO [L-(−)-sorbose] | 0.0 10^3/cm^2 | 

Same assay, conditions: carbon source; isolate JA16-1; after incubation for 24 hr

Compound | Spore germination %, on agar
OC[C@H]1O[C@@](CO)(O[C@H]2O[C@H](CO)[C@@H](O)[C@H](O)[C@H]2O)[C@@H](O)[C@@H]1O [Sucrose] | 73.4%
OC[C@H]1O[C@H](O[C@H]2[C@H](O)[C@@H](O)[C@H](O)O[C@@H]2CO)[C@H](O)[C@@H](O)[C@@H]1O [Maltose monohydrate] | 64.5%
OC[C@@H](O)[C@@H](O)[C@H](O)[C@H](O)CO [D-mannitol] | 61.1%
O=C[C@H](O)[C@@H](O)[C@@H](O)[C@H](O)CO [D(+)galactose] | 43.3%
OC[C@@H](O)[C@@H](O)[C@H](O)[C@@H](O)CO [D-sorbitol] | 67.8%
O=C(CO)[C@@H](O)[C@H](O)[C@@H](O)CO [L-(−)-sorbose] | 13.3%

Same assay, conditions: carbon source; isolate OWVT-1; 5 weeks

Compound | Sporulation 10^3/cm^2, on agar | growth in liquid culture (visual rating)
OC[C@H]1O[C@@](CO)(O[C@H]2O[C@H](CO)[C@@H](O)[C@H](O)[C@H]2O)[C@@H](O)[C@@H]1O [Sucrose] | 47.7 10^3/cm^2 | 
OC[C@H]1O[C@H](O[C@H]2[C@H](O)[C@@H](O)[C@H](O)O[C@@H]2CO)[C@H](O)[C@@H](O)[C@@H]1O [Maltose monohydrate] | 34.2 10^3/cm^2 | I
OC[C@@H](O)[C@@H](O)[C@H](O)[C@H](O)CO [D-mannitol] | 40.6 10^3/cm^2 | 
O=C[C@H](O)[C@@H](O)[C@@H](O)[C@H](O)CO [D(+)galactose] | 7.7 10^3/cm^2 | 
OC[C@@H](O)[C@@H](O)[C@H](O)[C@@H](O)CO [D-sorbitol] | 126.0 10^3/cm^2 | 
O=C(CO)[C@@H](O)[C@H](O)[C@@H](O)CO [L-(−)-sorbose] | 7.4 10^3/cm^2 | I

Same assay, conditions: carbon source; isolate OWVT-1; after incubation for 24 hr

Compound | Spore germination %, on agar
OC[C@H]1O[C@@](CO)(O[C@H]2O[C@H](CO)[C@@H](O)[C@H](O)[C@H]2O)[C@@H](O)[C@@H]1O [Sucrose] | 52.2%
OC[C@H]1O[C@H](O[C@H]2[C@H](O)[C@@H](O)[C@H](O)O[C@@H]2CO)[C@H](O)[C@@H](O)[C@@H]1O [Maltose monohydrate] | 46.7%
OC[C@@H](O)[C@@H](O)[C@H](O)[C@H](O)CO [D-mannitol] | 60.0%
O=C[C@H](O)[C@@H](O)[C@@H](O)[C@H](O)CO [D(+)galactose] | 43.3%
OC[C@@H](O)[C@@H](O)[C@H](O)[C@@H](O)CO [D-sorbitol] | 56.7%
O=C(CO)[C@@H](O)[C@H](O)[C@@H](O)CO [L-(−)-sorbose] | 26.7%
